# Data from the supplement of paper PMC10307832.
# Assays:
# Assay in all cases: relative viability (nuclei count vs DMSO), 5 days (fraction); higher = more cells survive
# Carboplatin = compound: C1CC(C1)(C(=O)O)C(=O)O.[NH2-].[NH2-].[Pt+2] [Carboplatin]
# Method in brief: (§1)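 A plate was accepted only when its control CV was below 25% and the cells had doubled at least once. Viability is defined from nuclear counts as treated wells divided by vehicle wells, with the median taken across plates. That median covers lung cancer cell lines grown in 1536-well plates, dosed by pinning at five √10-spaced library-drug concentrations, and counted in MetaXpress from 4× Hoechst images after 5 days.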
# GSK126 = compound: CC[C@H](C)N1C=C(C2=C(C=C(C=C21)C3=CN=C(C=C3)N4CCNCC4)C(=O)NCC5=C(C=C(NC5=O)C)C)C [GSK126]
# Method in brief: as §1
# MLN4924 = compound: NS(=O)(=O)OC[C@@H]1C[C@@H](n2ccc3c(N[C@H]4CCc5ccccc54)ncnc32)C[C@@H]1O [MLN4924]
# Method in brief: as §1
# Carboplatin + Foretinib = compound: C1CC(C1)(C(=O)O)C(=O)O.[NH2-].[NH2-].[Pt+2] [Carboplatin] + COc1cc2c(Oc3ccc(NC(=O)C4(C(=O)Nc5ccc(F)cc5)CC4)cc3F)ccnc2cc1OCCCN1CCOCC1 [Foretinib] (partner 0.25 µM)
# Method in brief: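 Each reported value is a median over duplicate plates. It expresses relative viability: treated-well nuclei count divided by vehicle-well nuclei count. Lung cancer cell lines in 1536-well plates were dosed by pin tool a day after seeding, alone with one drug or with a fixed anchor-drug dose plus five library-drug doses (not always all listed) in √10 steps, and nuclei were counted after 5 days.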
Cell Line,relative viability (Carboplatin; 0.08 µM),relative viability (Carboplatin; 0.253 µM),relative viability (Carboplatin; 0.8 µM),relative viability (Carboplatin; 2.53 µM),relative viability (Carboplatin; 8 µM),relative viability (GSK126; 0.08 µM),relative viability (GSK126; 0.253 µM),relative viability (GSK126; 0.8 µM),relative viability (GSK126; 2.53 µM),relative viability (GSK126; 8 µM),relative viability (MLN4924; 0.04 µM),relative viability (MLN4924; 0.1265 µM),relative viability (MLN4924; 0.4 µM),relative viability (MLN4924; 1.265 µM),relative viability (MLN4924; 4 µM),relative viability (Carboplatin + Foretinib; first compound 0.08 µM),relative viability (Carboplatin + Foretinib; first compound 0.253 µM),relative viability (Carboplatin + Foretinib; first compound 0.8 µM),relative viability (Carboplatin + Foretinib; first compound 2.53 µM),relative viability (Carboplatin + Foretinib; first compound 8 µM)
NCI-H2347,1.05,1,1.07,1.06,0.909,1.08,0.976,1.04,1.05,1,0.963,0.975,0.584,0.406,0.386,1.51,1.01,1.14,1.23,0.788
LXF-289,1.03,1.05,0.967,0.987,0.973,1.03,1.05,1.02,1.01,1.01,0.887,0.822,0.556,0.208,0.146,1.02,0.996,0.992,0.918,0.992
NCI-H1563,0.963,1,1.03,0.946,1.02,1.04,0.999,1.06,1.04,0.965,1.42,1.21,0.818,0.494,0.511,0.931,0.954,0.92,0.929,0.888
EMC-BAC-2,1.05,0.942,1.16,1.2,0.855,0.978,0.965,0.984,0.989,1.16,0.876,0.906,0.359,0.243,0.257,1.07,1.06,1.02,1.03,0.898
LC-2-ad,1.01,0.948,0.955,0.953,0.849,1.09,0.985,0.988,1.02,1.05,0.922,0.825,0.521,0.235,0.181,1.03,1.04,0.994,0.874,0.679
ABC-1,1.04,0.873,0.985,0.88,0.587,1.11,1.03,0.992,1.15,1.05,1.06,0.965,0.384,0.249,0.283,1.28,1.09,1.1,0.769,0.398
NCI-H647,1.13,1.02,0.986,0.944,0.767,0.879,0.964,0.896,1.05,1,0.881,0.619,0.221,0.0551,0.0691,1.15,1.24,1.13,1.17,0.84
NCI-H1734,1.07,1.04,0.991,1.03,0.875,1.13,0.981,0.986,1.03,1.01,1.02,0.963,0.306,0.145,0.155,0.777,0.877,0.827,0.954,0.812
LOU-NH91,1.16,0.938,0.96,0.969,0.936,0.966,0.978,0.95,1.06,0.985,0.997,1.13,0.929,0.543,0.563,0.991,0.998,0.955,0.921,0.922
NCI-H1793,0.968,0.98,0.908,0.906,1.1,1.07,0.948,0.826,1.11,0.855,0.91,0.982,1.01,0.473,0.361,0.939,0.773,0.882,0.718,0.724
NCI-H1623,1.03,0.963,0.872,0.875,0.695,0.974,1.04,0.959,0.954,1,0.744,0.53,0.443,0.298,0.246,0.959,0.919,0.884,0.747,0.725
NCI-H441,0.957,1.08,0.925,1,0.801,1.23,0.954,0.986,1.05,0.995,0.943,0.822,0.512,0.148,0.185,0.929,0.971,0.744,1.01,0.915
RERF-LC-KJ,0.978,1.02,0.939,0.88,0.702,1.12,1.1,1.02,1.01,1.05,0.879,0.738,0.233,0.211,0.228,0.933,0.874,0.956,0.772,0.713
H3255,0.979,1.11,1.01,0.939,0.784,1.04,1.01,0.993,1.06,0.963,0.825,0.721,0.391,0.246,0.328,0.905,0.872,0.875,0.898,0.836
A-427,1.07,1,1,1.07,1.01,1.09,1.02,0.97,1.09,1.07,0.515,0.44,0.31,0.218,0.234,1.16,1.15,1.03,0.992,1.16
